Laboratory results from patent US10202350B2, “MCT4 inhibitors for treating disease” (Vettore, LLC, priority 2015, dated 2019).

Columns and labels:
[1] = target: MCT4 (Homo sapiens (Human), UniProt O15427); experiment: MCT4-mediated lactate transport in MDA-MB-231 breast cancer cells; assay type: cell-based; conditions: MDA-MB-231 cells, native MCT4; 50 mM L-lactate
Procedure: (§1) 10 μL of a 30 mM DMSO stock of BCECF-AM ester (Life Technologies) is added and the cells are incubated at 37° C. for 5 min. The cells are pelleted (300 g, 5 min), washed once with 1 mL Tyrode's Solution, pH 7.4, re-pelleted (300 g, 5 min), and resuspended in 1 mL Tyrode's Solution, pH 7.4.
(§2) 2.5 μL BCECF-loaded cells, along with either 10 μL DMSO or 100×compound in DMSO, are added to 937.5 μL of Tyrode's Solution in a quartz 1.0 mL cuvette (PerkinElmer, B0631116). […] After establishing baseline BCECF fluorescence (around 10-20 s), 50 μL of 1 M sodium L-lactate (Sigma-Aldrich) is added to the cuvette (final concentration: 50 mM) and rapidly mixed. The time-dependent decrease in BCECF fluorescence (490/440 ratio) may be fit to an exponential decay curve (Prism GraphPad) to determine the rate of lactate transport.
Preparation of BCECF-loaded cells and lactate transport activity may be determined as described for Assay 1.

[2] = target: MCT1 (Homo sapiens (Human), UniProt P53985); experiment: MCT1-mediated lactate transport in BT20 breast cancer cells; assay type: cell-based; conditions: native MCT1, 10 mM L-lactate, Table 3
Procedure: as §1, §2
Assay 4: MCT1-Mediated Lactate Transport in BT20 Breast Cancer Cells.
Preparation of BCECF loaded cells are as described for Assay 1. Lactate transport assay is as described for Assay 1, except 10 mM L-lactate (rather than 50 mM) is added.

MCT1, sequence (P53985 whole entry): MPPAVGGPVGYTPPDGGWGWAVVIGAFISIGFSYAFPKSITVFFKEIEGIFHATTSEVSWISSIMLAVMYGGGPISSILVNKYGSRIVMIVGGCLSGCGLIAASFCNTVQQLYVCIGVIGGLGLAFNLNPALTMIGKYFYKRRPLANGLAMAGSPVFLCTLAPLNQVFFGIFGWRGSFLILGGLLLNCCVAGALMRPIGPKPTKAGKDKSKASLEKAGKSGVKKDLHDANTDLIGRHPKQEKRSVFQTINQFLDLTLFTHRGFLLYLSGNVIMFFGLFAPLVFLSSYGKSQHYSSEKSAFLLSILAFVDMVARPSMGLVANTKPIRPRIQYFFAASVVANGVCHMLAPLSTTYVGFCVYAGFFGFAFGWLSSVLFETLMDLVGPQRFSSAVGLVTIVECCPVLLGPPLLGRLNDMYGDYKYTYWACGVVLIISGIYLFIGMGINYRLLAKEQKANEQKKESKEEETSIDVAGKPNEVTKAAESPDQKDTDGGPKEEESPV
MCT1, sequence (P35613 140-385 partner): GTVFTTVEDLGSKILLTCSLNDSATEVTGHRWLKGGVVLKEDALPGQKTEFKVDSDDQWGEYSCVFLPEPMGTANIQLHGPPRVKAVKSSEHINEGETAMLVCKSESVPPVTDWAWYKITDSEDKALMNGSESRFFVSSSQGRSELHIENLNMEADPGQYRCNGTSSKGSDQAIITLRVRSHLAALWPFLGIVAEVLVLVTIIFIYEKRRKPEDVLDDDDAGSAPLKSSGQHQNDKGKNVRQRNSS
MCT4, sequence (O15427 whole entry, looked up): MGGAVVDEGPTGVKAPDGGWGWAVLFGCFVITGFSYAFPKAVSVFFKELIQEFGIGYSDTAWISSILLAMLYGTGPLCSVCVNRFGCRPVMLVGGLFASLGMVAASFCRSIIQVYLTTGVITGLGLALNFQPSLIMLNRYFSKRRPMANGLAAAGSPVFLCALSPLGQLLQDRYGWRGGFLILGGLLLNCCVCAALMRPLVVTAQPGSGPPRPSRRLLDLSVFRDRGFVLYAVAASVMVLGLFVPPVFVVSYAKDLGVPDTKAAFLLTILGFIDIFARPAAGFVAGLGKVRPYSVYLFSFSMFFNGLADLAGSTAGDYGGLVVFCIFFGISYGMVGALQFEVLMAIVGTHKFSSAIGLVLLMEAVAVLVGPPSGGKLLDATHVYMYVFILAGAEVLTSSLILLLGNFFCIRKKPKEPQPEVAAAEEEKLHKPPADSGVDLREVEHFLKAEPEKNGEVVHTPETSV
MCT4, sequence (P35613 whole entry partner, looked up): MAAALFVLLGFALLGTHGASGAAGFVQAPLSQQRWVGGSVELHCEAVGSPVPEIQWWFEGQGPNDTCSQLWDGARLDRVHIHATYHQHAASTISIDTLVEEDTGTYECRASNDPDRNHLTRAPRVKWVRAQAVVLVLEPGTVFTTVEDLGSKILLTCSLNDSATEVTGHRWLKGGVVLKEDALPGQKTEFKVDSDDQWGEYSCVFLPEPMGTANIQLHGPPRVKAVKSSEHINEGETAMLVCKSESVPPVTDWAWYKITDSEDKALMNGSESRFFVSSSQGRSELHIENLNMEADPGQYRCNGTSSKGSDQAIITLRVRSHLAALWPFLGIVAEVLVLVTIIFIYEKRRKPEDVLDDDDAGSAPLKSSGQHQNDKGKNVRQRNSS

Row | SMILES | IC50 [1] [nM] | IC50 [2] [nM]
1 | CC(C)(OCc1cc(-c2ccsc2)n(Cc2ccccc2Cl)n1)C(=O)O [Example 24, 2-[[1-[(2-Chlorophenyl)methyl]-5-(3-thienyl)pyrazol-3-yl]methoxy]-2-methyl-propanoic acid] | 30 | > 100000
2 | CC(C)(OCc1cc(-c2cccs2)n(Cc2ccccc2Cl)n1)C(=O)O [Example 25, 2-[[1-[(2-Chlorophenyl)methyl]-5-(2-thienyl)pyrazol-3-yl]methoxy]-2-methyl-propanoic acid] | 33 | 77000
3 | CC(C)COc1cccc(-c2cc(COC(C)(C)C(=O)O)nn2Cc2ccccc2F)c1 [Example 26, 2-[[1-[(2-Fluorophenyl)methyl]-5-(3-isobutoxyphenyl)pyrazol-3-yl]methoxy]-2-methyl-propanoic acid] | 9.4 | 27000
4 | CCOc1cccc(-c2cc(COC(C)(C)C(=O)O)nn2Cc2ccccc2Cl)c1 [Example 28, 2-[[1-[(2-Chlorophenyl)methyl]-5-(3-ethoxyphenyl)pyrazol-3-yl]methoxy]-2-methyl-propanoic acid] | 12 | 15000
5 | CC(C)Oc1cccc(-c2cc(COC(C)(C)C(=O)O)nn2Cc2ccccc2Br)c1 [Example 29, 2-[[1-[(2-Bromophenyl)methyl]-5-(3-isopropoxyphenyl)pyrazol-3-yl]methoxy]-2-methyl-propanoic acid] | 3.7 | 16000
6 | COc1cccc(-c2cc(COC(C)(C)C(=O)O)nn2Cc2ccccc2Br)c1 [Example 30, 2-[[1-[(2-Bromophenyl)methyl]-5-(3-methoxyphenyl)-1H-pyrazol-3-yl]methoxy]-2-methylpropanoic acid] | 8.8 | 27000
7 | COc1cccc(-c2cc(COC(C)(C)C(=O)O)nn2Cc2ccccc2C(C)C)c1 [Example 31, 2-[[1-[(2-Isopropylphenyl)methyl]-5-(3-methoxyphenyl)pyrazol-3-yl]methoxy]-2-methyl-propanoic acid] | 53 | 42000

Further lines, results first:

Row | IC50 [1] [nM] | IC50 [2] [nM] | SMILES
8 | 2.6 |  | CC(C)(OCc1cc(-c2cccc(OCC3CCC3)c2)n(Cc2ccccc2Cl)n1)C(=O)O [Example 42, 2-[[1-[(2-Chlorophenyl)methyl]-5-[3-(cyclobutylmethoxy)phenyl]pyrazol-3-yl]methoxy]-2-methyl-propanoic acid]
9 | 1.1 |  | CC(C)(OCc1cc(-c2cccc(OCC3CCCC3)c2)n(Cc2ccccc2Cl)n1)C(=O)O [Example 44, 2-[[1-[(2-Chlorophenyl)methyl]-5-[3-(cyclopentylmethoxy)phenyl]pyrazol-3-yl]methoxy]-2-methyl-propanoic acid]
10 |  | > 133000 | COc1cccc(-c2cc(COC(C)(C)C(=O)O)nn2-c2ccccn2)c1 [Example 56, 2-[[5-(3-methoxyphenyl)-1-(pyridin-2-yl)-1H-pyrazol-3-yl]methoxy]-2-methylpropanoic acid]
11 |  | 78000 | COc1cccc(-c2cc(COC(C)(C)C(=O)O)nn2-c2cccc(Cl)c2)c1 [Example 58, 2-[[1-(3-chlorophenyl)-5-(3-methoxyphenyl)-1H-pyrazol-3-yl]methoxy]-2-methylpropanoic acid]
12 |  | 81000 | COc1cccc(-c2cc(COC(C)(C)C(=O)O)nn2-c2ccc(Cl)cc2)c1 [Example 59, 2-[[1-(4-chlorophenyl)-5-(3-methoxyphenyl)-1H-pyrazol-3-yl]methoxy]-2-methylpropanoic acid]
13 |  | 9000 | CC(C)(OCc1cc(Cc2ccccc2)n(Cc2ccccc2Cl)n1)C(=O)O [Example 77, 2-([5-Benzyl-1-[(2-chlorophenyl)methyl]-1H-pyrazol-3-yl]methoxy)-2-methylpropanoic Acid]
14 | 81 |  | CC(C)(OCc1cc(-c2cccc(OCC3COC3)c2)n(Cc2ccccc2Cl)n1)C(=O)O [Example 80, 2-[[1-[(2-Chlorophenyl)methyl]-5-[3-(oxetan-3-ylmethoxy)phenyl]pyrazol-3-yl]methoxy]-2-methyl-propanoic Acid]
